Results as given in ChEMBL document CHEMBL4673265, “The food-grade antimicrobial xanthorrhizol targets the enoyl-ACP reductase (FabI) in Escherichia coli” (Bioorg Med Chem Lett, 2020).
Numbering of substitutions follows the chain as printed. Converted amounts (≈) assume the structure as drawn. The source made the active and inactive calls. No cut-off for these calls is given here.

What was measured:
[1] = system: T1, Enoyl-[acyl-carrier-protein] reductase [NADH] FabI (Escherichia coli K-12), P0AEK4 [G93V]; experiment: Binding affinity to Escherichia coli FabI G93V mutant assessed as binding free energy
T1 sequence (whole entry): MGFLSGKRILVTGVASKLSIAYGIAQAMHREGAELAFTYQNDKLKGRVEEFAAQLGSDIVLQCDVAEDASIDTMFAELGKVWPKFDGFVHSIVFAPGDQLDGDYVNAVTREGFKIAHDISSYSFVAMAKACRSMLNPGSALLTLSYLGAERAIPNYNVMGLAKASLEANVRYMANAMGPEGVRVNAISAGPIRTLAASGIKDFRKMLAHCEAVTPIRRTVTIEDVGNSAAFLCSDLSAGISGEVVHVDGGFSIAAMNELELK

[2] = system: Escherichia coli; experiment: Antimicrobial activity against wild type Escherichia coli W3110 assessed as absence of growth; type: functional
[3] = target: T2, Enoyl-[acyl-carrier-protein] reductase [NADH] FabI (Escherichia coli K-12, UniProt P0AEK4); experiment: Inhibition of Wild type Escherichia coli FabI
T2 sequence (P0AEK4 whole entry): T1 sequence (whole entry) with V93G

[4] = Drug uptake in Escherichia coli W3110 at 8 ug/ml incubated for 2 hrs (Rvb (wash control) = 1.88 pM); type: ADME; conditions: dose 8 µg/ml
[5] = system: Plasmodium falciparum; experiment: Binding affinity to Plasmodium falciparum FabI Y156V mutant assessed as fluorescence quenching by fluorescence spectral analysis
[6] = system: T1, Enoyl-[acyl-carrier-protein] reductase [NADH] FabI (Escherichia coli K-12), P0AEK4 [G93V]; experiment: Binding affinity to Escherichia coli FabI G93V mutant assessed as change in entropy
[7] = system: Escherichia coli; experiment: Antimicrobial activity against Escherichia coli W3110 imp4213 expressing pCA24N-fab F203L mutant assessed as absence of growth; type: functional
[8] = system: Escherichia coli; experiment: Antimicrobial activity against Escherichia coli W3110 imp4213 expressing pCA24N-fab F204V mutant assessed as absence of growth; type: functional
[9] = system: Escherichia coli; experiment: Antimicrobial activity against Escherichia coli W3110 imp4213 assessed as absence of growth; type: functional
[10] = system: Escherichia coli; experiment: Antimicrobial activity against Escherichia coli W3110 imp4213 expressing fabI392 pCA24N fabI mutant assessed as absence of growth; type: functional
[11] = system: Escherichia coli; experiment: Antimicrobial activity against Escherichia coli W3110 imp4213 expressing fabI G93V mutant assessed as absence of growth; type: functional
[12] = system: T3, Enoyl-[acyl-carrier-protein] reductase [NADH] FabI (Escherichia coli K-12), P0AEK4 [Y156V]; experiment: Binding affinity to Escherichia coli FabI Y156V mutant assessed as binding free energy
T3 sequence (whole entry): T1 sequence (whole entry) with V93G, Y156V

[13] = system: Escherichia coli; experiment: Antimicrobial activity against Escherichia coli W3110 imp4213 expressing pCA24N-fab/ Y156V mutant assessed as absence of growth; type: functional
[14] = system: Escherichia coli; experiment: Antimicrobial activity against Escherichia coli W3110 imp4213 expressing fabI392 mutant assessed as absence of growth; type: functional
[15] = target: Enoyl-[acyl-carrier-protein] reductase [NADH] FabI (Escherichia coli K-12, UniProt P0AEK4, Y156V); experiment: Inhibition of Escherichia coli FabI Y156V mutant
Enoyl-[acyl-carrier-protein] reductase [NADH] FabI (Escherichia coli K-12, UniProt P0AEK4, Y156V), sequence (P0AEK4 2-262 Y156V limits assumed): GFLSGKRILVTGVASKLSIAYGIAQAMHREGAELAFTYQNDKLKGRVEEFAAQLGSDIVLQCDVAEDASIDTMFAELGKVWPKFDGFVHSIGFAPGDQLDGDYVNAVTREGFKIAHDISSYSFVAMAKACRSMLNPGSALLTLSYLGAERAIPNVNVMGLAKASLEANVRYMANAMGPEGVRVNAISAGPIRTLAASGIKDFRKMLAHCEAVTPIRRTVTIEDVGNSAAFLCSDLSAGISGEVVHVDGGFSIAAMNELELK

[16] = target: Enoyl-[acyl-carrier-protein] reductase [NADH] FabI (Escherichia coli K-12, UniProt P0AEK4, F203V); experiment: Inhibition of Escherichia coli FabI F203V mutant
Enoyl-[acyl-carrier-protein] reductase [NADH] FabI (Escherichia coli K-12, UniProt P0AEK4, F203V), sequence (P0AEK4 2-262 F203V limits assumed): as the sequence (P0AEK4 2-262 Y156V limits assumed) above, with V155Y, F202V counted along it

[17] = system: Escherichia coli; experiment: Antimicrobial activity against Escherichia coli W3110 imp4213 expressing pCA24N-fabI mutant assessed as absence of growth; type: functional
[18] = target: T4, Enoyl-[acyl-carrier-protein] reductase [NADH] FabI (Escherichia coli K-12) (UniProt P0AEK4); experiment: Binding affinity to wild type Escherichia coli FabI assessed as binding free energy
T4 sequence (whole entry): T1 sequence (whole entry) with V93G

[19] = system: Escherichia coli; experiment: Antimicrobial activity against Escherichia coli W3110 imp4213 expressing fabI392 pCA24N fabI Y156V mutant assessed as absence of growth; type: functional
[20] = system: Escherichia coli; experiment: Antimicrobial activity against triclosan resistance-induced Escherichia coli W3110 assessed as absence of growth; type: functional
[21] = system: Escherichia coli; experiment: Ratio of MIC for antimicrobial activity against Escherichia coli W3110 imp4213 expressing fabI392 pCA24N fabI F204V mutant assessed as absence of growth to MIC for antimicrobial activity against Escherichia coli W3110 imp4213 expressing fabI392 mutant assessed as absence of growth; type: functional
[22] = system: Escherichia coli; experiment: Ratio of MIC for antimicrobial activity against Escherichia coli W3110 imp4213 expressing fabI392 pCA24N fabI F203L mutant assessed as absence of growth to MIC for antimicrobial activity against Escherichia coli W3110 imp4213 expressing fabI392 mutant assessed as absence of growth; type: functional
[23] = target: T5, Enoyl-acyl-carrier protein reductase (Plasmodium falciparum) (UniProt Q965D5); experiment: Binding affinity to Plasmodium falciparum FabI assessed as fluorescence quenching by fluorescence spectral analysis
T5 sequence (whole entry): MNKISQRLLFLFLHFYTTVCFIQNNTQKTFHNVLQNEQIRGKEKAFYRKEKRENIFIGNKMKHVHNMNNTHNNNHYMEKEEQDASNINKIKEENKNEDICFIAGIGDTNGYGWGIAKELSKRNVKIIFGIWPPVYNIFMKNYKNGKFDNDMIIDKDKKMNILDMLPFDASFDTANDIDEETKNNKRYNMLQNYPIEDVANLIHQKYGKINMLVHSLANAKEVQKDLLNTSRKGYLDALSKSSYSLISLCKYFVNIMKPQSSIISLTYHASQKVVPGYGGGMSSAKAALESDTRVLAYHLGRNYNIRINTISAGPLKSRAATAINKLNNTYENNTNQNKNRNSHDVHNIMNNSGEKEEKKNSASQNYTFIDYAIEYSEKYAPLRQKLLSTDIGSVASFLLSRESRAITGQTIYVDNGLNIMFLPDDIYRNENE

[24] = system: Escherichia coli; experiment: Antimicrobial activity against Escherichia coli W3110 imp4213 expressing pCA24N mutant assessed as absence of growth; type: functional
[25] = system: Escherichia coli; experiment: Antimicrobial activity against Escherichia coli W3110 imp4213 expressing fabI392 pCA24N mutant assessed as absence of growth; type: functional
[26] = target: Enoyl-[acyl-carrier-protein] reductase [NADH] FabI (Escherichia coli K-12, UniProt P0AEK4, G93V); experiment: Inhibition of Escherichia coli FabI G93V mutant
[27] = system: Escherichia coli; experiment: Antimicrobial activity against Escherichia coli W3110 imp4213 expressing fabI392 pCA24N fabI F204V mutant assessed as absence of growth; type: functional
[28] = target: T4, Enoyl-[acyl-carrier-protein] reductase [NADH] FabI (Escherichia coli K-12); experiment: Binding affinity to wild type Escherichia coli FabI assessed as change in entropy
[29] = target: Enoyl-[acyl-carrier-protein] reductase [NADH] FabI (Escherichia coli K-12, UniProt P0AEK4, F203L); experiment: Inhibition of Escherichia coli FabI F203L mutant
Enoyl-[acyl-carrier-protein] reductase [NADH] FabI (Escherichia coli K-12, UniProt P0AEK4, F203L), sequence (P0AEK4 2-262 F203L limits assumed): as the sequence (P0AEK4 2-262 Y156V limits assumed) above, with V155Y, F202L counted along it

[30] = system: T3, Enoyl-[acyl-carrier-protein] reductase [NADH] FabI (Escherichia coli K-12), P0AEK4 [Y156V]; experiment: Binding affinity to Escherichia coli FabI Y156V mutant assessed as change in entropy
[31] = Drug uptake in Escherichia coli W3110 imp4213 mutant at 8 ug/ml incubated for 2 hrs (Rvb (wash control) = 1.48 +/- 1.31 pM); type: ADME; conditions: dose 8 µg/ml
[32] = system: Escherichia coli; experiment: Antibacterial activity against Escherichia coli BW25113 assessed as effect on growth rate per hour at 8 uM incubated for 24 hrs by microplate reader; type: functional
[33] = system: Escherichia coli; experiment: Antimicrobial activity against Escherichia coli W3110 imp4213 expressing fabI392 pCA24N fabI F203L mutant assessed as absence of growth; type: functional

`CC(C)=CCC[C@@H](C)c1ccc(C)c(O)c1` [XANTHORRIZOL] gave a deltaG [1] of -15.1 kcal/mol, an MIC [2] of 0.05 µg/mL (≈ 0.229 µM) and an IC50 [3] of 17.1 µM. For the same compound, the Drug uptake [4] was 0.23 pM, the Activity [5] was “inactive” and the -TdeltaS [6] was -38.7 kcal/mol. The MIC [7] was 256 µg/mL (≈ 1170 µM), the MIC [8] was 256 µg/mL (≈ 1170 µM) and the MIC [9] was 16 µg/mL (≈ 73.3 µM). For the same compound, the MIC [10] was 8 µg/mL (≈ 36.6 µM), the MIC [11] was 16 µg/mL (≈ 73.3 µM) and the deltaG [12] was -10.6 kcal/mol. For the same compound, the MIC [13] was 128 µg/mL (≈ 586 µM), the MIC [14] was 2 µg/mL (≈ 9.16 µM) and the IC50 [15] was 37.7 µM. It also gave an IC50 [16] of 57.3 µM, an MIC [17] of 64 µg/mL (≈ 293 µM) and a deltaG [18] of -15 kcal/mol. The MIC [19] was 16 µg/mL (≈ 73.3 µM), the MIC [20] was 0.125 µg/mL (≈ 0.573 µM) and the Ratio [21] was 2. For the same compound, the Ratio [22] was 2, the Activity [23] was “inactive” and the MIC [24] was 16 µg/mL (≈ 73.3 µM). For the same compound, the MIC [25] was 2 µg/mL (≈ 9.16 µM), the IC50 [26] was 19.7 µM and the MIC [27] was 16 µg/mL (≈ 73.3 µM). The -TdeltaS [28] was -32.2 kcal/mol, the IC50 [29] was 75.7 µM and the -TdeltaS [30] was -33.2 kcal/mol. It also gave a Drug uptake [31] of 76.65 pM, an Activity [32] of 0.354 and an MIC [33] of 16 µg/mL (≈ 73.3 µM).
